Experimental data: US9827229B2, “Small molecule securinine and norsecurinine analogs and their use in cancers, inflammatory diseases and infections” (INVENIO THERAPEUTICS INC., priority 2013, dated 2017)
Counter-ions that a name gives are not always drawn. Like-named read-outs stand apart in the source and are kept apart here.

Experiments:
[1] = system: HL60 cells; test: Growth of HL60 cells (IC50); format: cell-based, human; details: no unit in head or cell (other cells of the column print uM)
Description: (§1) The analogs were then tested and evaluated on the ability to affect differentiation and growth of HL60 cells.

[2] = system: HL60 cells; test: Differentiation of HL60 cells (Dif50); format: cell-based, human; details: Homo sapiens, HL-60, HL-60 cells, differentiation; no unit in head or cell (other cells of the column print uM); read-out: HL-60, Dif50
Description: The tested compounds and their respective results are produced in Table 1. Those skilled in the art will appreciate that combining the securinine and/or norsecurinine analogs with other differentiation inducing agents, such as all-trans retinoic acid, cytarabine and/or an anthracycline, would be of further benefit. Those skilled in the art will appreciate that inducing differentiation may further reduce oxidative damage due to lower presence of radical inducing enzymes (see, e.g., Yamada et al. J Biol Chem 259(5)3021-3025 (1984) and Weil et al., PNAS 84:2057-2061 (1987)).
as §1

[3] = Homo sapiens, HL-60, HL-60 cells, growth, read-out: HL-60, IC50
[4] = Homo sapiens, HL-60, read-out: HL-60, IC50, HL-60 cells, growth

SMILES | IC50 [1, 3] [µM] | further results
COC(OC)C1CCC2N1C1C=C(C#Cc3ccccc3)C3=CC(=O)OC32C1 (stereo not shown) [INV-SZ-123-2] | 0.37 to 0.75 | 
CS(=O)(=O)NCC#CC1=CC2CC3(OC(=O)C=C13)C1CCCCN21 (stereo not shown) [INV-SZ-137-1] | 0.07 to 0.15 | 
CCCCCCCCC#CC1=C[C@@H]2C[C@@]3(OC(=O)C=C13)[C@H]1CCCCN21 [INVS-MG-118-IIB] | 2.5 to 5 | 
O=C1C=C2C(c3ccccc3)=C[C@@H]3C[C@@]2(O1)[C@H]1CCCCN31 [INVG-28-1 = INVS-MG-56B] |  | EC50 [2]: > 30 µM
COC(OC)[C@H]1CC[C@H]2N1[C@@H]1C=C(I)C3=CC(=O)O[C@@]32C1 [INVS-MG-99-IVB-I] |  | IC50 [1, 4]: 0.31 to 0.625 µM
COc1ccc(CN[C@@H]2CC3=CC(=O)O[C@@]34C[C@@H]2N2CCCC[C@@H]24)cc1 [INVS-MG-86C] |  | EC50 [2]: > 30 µM
CC1CC2=CC(=O)O[C@@]23C[C@@H]1N1CCCC[C@@H]13 (stereo partly shown) [Sec-18 & Sec-20] |  | EC50 [2]: 20 to 30 µM
O=C1C=C2C(C#Cc3ccc(-c4ccccc4)cc3)=C[C@@H]3C[C@@]2(O1)[C@H]1CCCCN31 [INVS-MG-169-III] | 0.07 to 0.156 | 
O=C1C=C2CC([S+]([O-])c3ccccc3)[C@@H]3C[C@@]2(O1)[C@H]1CCCCN31 (stereo partly shown) [Sec-21] |  | EC50 [2]: 20 to 30 µM
O=C1C=C2C(I)=C[C@@H]3C[C@@]2(O1)[C@H]1CCCCN31 [INVS-MG-82 = 12A HCl salt] |  | IC50 ([1]; read-out: HL-60, IC50, HL-60 cells, growth): > 2.5 µM
CCN(CC)CC#CC1=C[C@@H]2C[C@@]3(OC(=O)C=C13)[C@H]1CCCCN21 [INVS-MG-145-V] |  | IC50 [1, 4]: 0.07 to 0.156 µM
C#CC1=C[C@@H]2C[C@@]3(OC(=O)C=C13)[C@H]1CCCCN21 [INVS-MG-207A] | 0.07 to 0.156 | 
C[Si](C)(C)C#CC1=C[C@@H]2C[C@@]3(OC(=O)C=C13)[C@H]1CCCCN21 [INVS-MG-207-IIIA] |  | IC50 [1, 4]: 1.25 to 2.5 µM
COC(OC)C1CCC2N1C1C=C(C#Cc3ccc[n+]([O-])c3)C3=CC(=O)OC32C1 (stereo not shown) [INV-SZ-115-1] | 0.15 to 0.31 | 
O=C1C=C2C(C#Cc3cc(C(F)(F)F)cc(C(F)(F)F)c3)=C[C@@H]3C[C@@]2(O1)[C@H]1CCCCN31 [INVS-MG-149B′] | 1.25 to 2.5 | 
CNCC#CC1=CC2CC3(OC(=O)C=C13)C1CCCCN21 (stereo not shown) [INV-SZ-129-1] | 2.5 to 5 | 
O=C1C=C2C(C#CCCCCl)=C[C@@H]3C[C@@]2(O1)[C@H]1CCCCN31 [INVS-MG-119A] | 0.625 to 1.25 | 

SMILES | IC50 [1, 3] [µM] | further results
O=C1C=C2C3C=CCC2(O1)C1CCCCN1O3 (stereo not shown) [INV-SZ-125-1] | < 5 | 
COC(OC)C1CCC2N1C1C=C(C#Cc3cccnc3)C3=CC(=O)OC32C1 (stereo not shown) [INV-SZ-114-1] | 0.07 to 0.15 | 
CN(C)c1ccc(C#CC2=C[C@@H]3C[C@@]4(OC(=O)C=C24)[C@H]2CCCCN32)cc1 [INVS-MG-146-IV] |  | IC50 [1, 4]: 0.07 to 0.156 µM
O=C1C=C2C(/C=C(\C#Cc3cc(C(F)(F)F)cc(C(F)(F)F)c3)c3cc(C(F)(F)F)cc(C(F)(F)F)c3)=C[C@@H]3C[C@@]2(O1)[C@H]1CCCCN31 [INVS-MG-149B] | 1.25 to 2.5 | 
O=C1C=C2C3C=CCC2(O1)C1CCC=CN1O3 (stereo not shown) [INV-SZ-125-3] | < 5 | 
COc1cc(C#CC2=C[C@@H]3C[C@@]4(OC(=O)C=C24)[C@H]2CC[C@H](C(OC)OC)N32)cc(OC)c1 [INVS-MG-222B] | < 0.03 | 
O=C1C=C2C(I)=CC3CC2(O1)C1CCC(CO)N31 (stereo not shown) [INV-SZ-140-1] | 0.07 to 0.15 | 
O=C1C=C2C(/C=C(\C#CCCCCl)CCCCl)=C[C@@H]3C[C@@]2(O1)[C@H]1CCCCN31 [INVS-MG-119B] | 1.25 to 2.5 | 
CCCCC1C(/C=C/c2ccc(OC)cc2)C2=CC(=O)O[C@@]23C[C@@H]1N1CCCC[C@@H]13 (stereo partly shown) [INVS-MG-163-IIB] | < 10 | 
COC(OC)[C@H]1CC[C@H]2N1[C@@H]1C=C(C#Cc3cc4ccccc4c4ccccc34)C3=CC(=O)O[C@@]32C1 [INVS-MG-220B] |  | IC50 [1, 4]: 0.156 µM
COC(OC)[C@H]1CC[C@H]2N1[C@@H]1C=CC3=CC(=O)O[C@@]32C1 [INVS-MG-99D = 52D] |  | IC50 [1, 4]: 0.31 to 0.625 µM
O=C1C=C2C(C#Cc3ccc(CO)cc3)=CC3CC2(O1)C1CCCCN31 (stereo not shown) [INV-SZ-120-1] | 0.07 to 0.15 | 
COC(OC)C1CCC2N1C1C=C(C#CCO)C3=CC(=O)OC32C1 (stereo not shown) [INV-SZ-136-1] | 0.15 to 0.31 | 
COC(OC)C1CCC2N1C1C=C(C#Cc3ccc(N(C)C)cc3)C3=CC(=O)OC32C1 (stereo not shown) [INV-SZ-117-3] | 0.03 to 0.07 | 
COc1cccc(C#CC2=C[C@@H]3C[C@@]4(OC(=O)C=C24)[C@H]2CC[C@H](C(OC)OC)N32)c1 [INVS-MG-221B] | 0.625 to 1.25 | 
O=C1C=C2C=CC3CC2(O1)C1CCC(CO)N31 (stereo not shown) [INV-SZ-132-2] | 0.3 to 0.6 | 
O=C1C=C2C(C#Cc3ccc[n+]([O-])c3)=CC3CC2(O1)C1CCCCN31 (stereo not shown) [INV-SZ-113-2] | 0.15 to 0.31 | 
